Reference: US20240059677A1, “SUBSTITUTED PYRIMIDINE DERIVATIVES AS NICOTINIC ACETYLCHOLINESTERASE RECEPTOR ALPHA 6 MODULATOR” (priority 2020, published 2024)

Target: T1, human nAChRα6-α3 chimera, in addition to β2 and β3^V273S subunits (Homo sapiens, UniProt P32297+Q15825)
T1 construct: expressed in transfected cells
Test: fluorescence-based calcium assay: inhibition of nicotine stimulated nAChRα6 activity (FLIPR)
Conditions: HEK cell line stably expressing the receptor; 10 min pre-incubation, nicotine EC80; 10-point curve, duplicate wells; read-out: IC50
Method: The ability of the test compounds to inhibit nicotine stimulated nAChRα6 activity was determined in a fluorescence-based calcium assay. Compound activity was determined using a HEK cell line stably expressing a human nAChRα6-α3 chimera, in addition to β2 and β3^V273S subunits (as in Capelli et al, Br J Pharmacol 163(2): 313-29 2011). In this cell line, nicotine stimulated an increase in intracellular calcium concentration, measured as an increase in fluorescence when cells were incubated with a calcium sensitive dye. Test compounds were pre-incubated with cells prior to nicotine stimulation to detect any reduction in the magnitude of the nicotine response.
The day prior to the assay, compounds were serially diluted in DMSO (200× final assay concentration (FAC)), in 384-well plates which were then stored in the dark at room temperature (RT) until use. Cells were seeded at 20 k/well in black, poly-D-lysine coated, clear bottom 384-well plates and incubated for 4 hours at 37° C., followed by overnight incubation at 30° C. The following day, the DMSO compound plate was diluted 1:20 (10×FAC) in assay buffer (HEPES buffered saline solution with 10 mM HEPES, 0.1% bovine serum albumin, 1 mM probenecid). A nicotine solution was prepared in assay buffer (7×FAC) and dispensed into a 384-well plate. The growth media was removed from the cell plate, replaced with 53 μl calcium dye/well (Calcium 5; Molecular Devices) and the plate incubated at 30° C. for 45 minutes. Test compounds were then added to the cells (7 μl of 10×FAC) and incubated for 10 minutes, after which nicotine EC80 (10 μl of 7×FAC) was added and changes in fluorescence measured using a FLIPR plate reader (Molecular Devices).
Compound activity was examined using a 10-point, half-log concentration-response range and each concentration was tested in duplicate wells.

T1 sequence (Q05901 25-458 V273S): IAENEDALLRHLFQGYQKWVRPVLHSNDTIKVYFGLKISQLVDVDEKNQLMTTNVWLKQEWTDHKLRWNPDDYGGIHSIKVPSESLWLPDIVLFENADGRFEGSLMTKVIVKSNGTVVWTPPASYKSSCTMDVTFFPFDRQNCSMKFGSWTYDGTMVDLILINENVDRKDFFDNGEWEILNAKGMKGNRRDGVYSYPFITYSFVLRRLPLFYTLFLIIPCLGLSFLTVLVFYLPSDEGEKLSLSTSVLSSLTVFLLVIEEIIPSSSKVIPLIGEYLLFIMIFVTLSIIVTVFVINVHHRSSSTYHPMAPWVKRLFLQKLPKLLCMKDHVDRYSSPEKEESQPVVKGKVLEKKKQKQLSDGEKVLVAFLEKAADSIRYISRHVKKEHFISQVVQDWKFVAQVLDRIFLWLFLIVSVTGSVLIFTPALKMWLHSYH
T1 sequence (P17787 26-502, stated change not applied, further chain): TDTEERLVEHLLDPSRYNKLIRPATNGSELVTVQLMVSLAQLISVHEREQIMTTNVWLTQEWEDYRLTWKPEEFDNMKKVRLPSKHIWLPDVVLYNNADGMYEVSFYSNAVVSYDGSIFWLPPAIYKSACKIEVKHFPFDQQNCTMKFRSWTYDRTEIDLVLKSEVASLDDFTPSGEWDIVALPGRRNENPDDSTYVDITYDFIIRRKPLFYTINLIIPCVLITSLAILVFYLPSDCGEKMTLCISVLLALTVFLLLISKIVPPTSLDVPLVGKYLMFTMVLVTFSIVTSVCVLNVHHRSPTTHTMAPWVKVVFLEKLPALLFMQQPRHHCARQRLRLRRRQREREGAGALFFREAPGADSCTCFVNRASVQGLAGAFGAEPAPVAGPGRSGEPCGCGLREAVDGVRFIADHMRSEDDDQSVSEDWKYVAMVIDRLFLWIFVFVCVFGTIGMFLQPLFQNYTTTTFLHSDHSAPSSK
T1 sequence (Q15825+P32297 fused with the stated changes): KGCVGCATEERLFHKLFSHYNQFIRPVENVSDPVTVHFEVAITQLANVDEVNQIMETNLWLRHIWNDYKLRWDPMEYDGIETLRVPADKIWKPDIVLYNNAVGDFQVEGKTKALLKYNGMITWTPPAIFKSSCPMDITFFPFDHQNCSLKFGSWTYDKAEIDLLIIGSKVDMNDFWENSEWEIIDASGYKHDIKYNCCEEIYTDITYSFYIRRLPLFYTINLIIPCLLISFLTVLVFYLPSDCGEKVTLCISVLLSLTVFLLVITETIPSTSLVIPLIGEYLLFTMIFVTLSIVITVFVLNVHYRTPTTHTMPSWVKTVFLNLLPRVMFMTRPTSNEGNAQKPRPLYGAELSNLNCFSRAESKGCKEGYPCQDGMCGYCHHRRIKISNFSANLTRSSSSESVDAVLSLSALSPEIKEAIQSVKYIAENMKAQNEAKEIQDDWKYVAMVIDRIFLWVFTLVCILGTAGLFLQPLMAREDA

Compound | IC50
Cc1nc(NC(C)[C@@H]2CCCN2C)ncc1-c1ccc(C(F)(F)F)cc1F (single isomer, unassigned) [Example 132a, 5-(2-fluoro-4-(trifluoromethyl)phenyl)-4-methyl-N-((1*R)-1-((2S)-1-methylpyrrolidin-2-yl)ethyl)pyrimidin-2-amine] | 0.092 µM
Cc1nc(NC(C)[C@@H]2CCCN2C)ncc1-c1ccc(C(F)(F)F)cc1F (single isomer, unassigned) [Example 132b, 5-(2-fluoro-4-(trifluoromethyl)phenyl)-4-methyl-N-((1*S)-1-((2S)-1-methylpyrrolidin-2-yl)ethyl)pyrimidin-2-amine] | 0.097 µM
Cc1nc(NC[C@H]2NCC[C@@H]2F)ncc1-c1ccc(C(F)(F)F)cc1F (single isomer, unassigned) [Example 133a, 5-(2-fluoro-4-(trifluoromethyl)phenyl)-N-(((2*S,3*R)-3-fluoropyrrolidin-2-yl)methyl)-4-methyl-pyrimidin-2-amine] | 0.305 µM
Cc1nc(NC[C@H]2NCC[C@@H]2F)ncc1-c1ccc(C(F)(F)F)cc1F (single isomer, unassigned) [Example 133b, 5-(2-fluoro-4-(trifluoromethyl)phenyl)-N-(((2*R,3*S)-3-fluoropyrrolidin-2-yl)methyl)-4-methyl-pyrimidin-2-amine] | 0.3 µM
Cc1nc(NCC2CCC(C)N2C)ncc1-c1ccc(C(F)(F)F)cc1F (single isomer, unassigned) [Example 138a, N-(((2*R,5*R)-1,5-dimethylpyrrolidin-2-yl)methyl)-5-(2-fluoro-4-(trifluoromethyl)phenyl)-4-methyl-pyrimidin-2-amine] | 0.207 µM
Cc1nc(NCC2CCC(C)N2C)ncc1-c1ccc(C(F)(F)F)cc1F (single isomer, unassigned) [Example 138b, N-(((2*S,5*S)-1,5-dimethylpyrrolidin-2-yl)methyl)-5-(2-fluoro-4-(trifluoromethyl)phenyl)-4-methyl-pyrimidin-2-amine] | 0.085 µM
Cc1nc(NCC2CCC(C)N2C)ncc1-c1ccc(C(F)(F)F)cc1F (single isomer, unassigned) [Example 138c, N-(((2*R,5*S)-1,5-dimethylpyrrolidin-2-yl)methyl)-5-(2-fluoro-4-(trifluoromethyl)phenyl)-4-methyl-pyrimidin-2-amine] | 0.069 µM
Cc1nc(NCC2CCC(C)N2C)ncc1-c1ccc(C(F)(F)F)cc1F (single isomer, unassigned) [Example 138d, N-(((2*S,5*R)-1,5-dimethylpyrrolidin-2-yl)methyl)-5-(2-fluoro-4-(trifluoromethyl)phenyl)-4-methyl-pyrimidin-2-amine] | 0.025 µM
Cc1nc(NCCC2CCCN2C)ncc1-c1ccccc1 (centres unmarked) [Example 1, 4-methyl-N-(2-(1-methylpyrrolidin-2-yl)ethyl)-5-phenylpyrimidin-2-amine] | 0.048 µM
CN1CCCC1CCNc1ncc(-c2ccccc2)cn1 (centres unmarked) [Example 2, N-(2-(1-methylpyrrolidin-2-yl)ethyl)-5-phenylpyrimidin-2-amine] | 0.302 µM
CN1CCCC1CCNc1ncc(-c2ccc(F)cc2)cn1 (centres unmarked) [Example 3, 5-(4-fluorophenyl)-N-(2-(1-methylpyrrolidin-2-yl)ethyl)pyrimidin-2-amine] | 0.331 µM
CN1CCCC(CNc2ncc(-c3ccc(F)cc3)cn2)C1 (centres unmarked) [Example 4, 5-(4-fluorophenyl)-N-((1-methylpiperidin-3-yl)methyl)pyrimidin-2-amine] | 0.211 µM
CN1CCCC(Nc2ncc(-c3ccc(F)cc3)cn2)C1 (centres unmarked) [Example 5, 5-(4-fluorophenyl)-N-(1-methylpiperidin-3-yl)pyrimidin-2-amine] | 0.635 µM
CC(C)N1CCCC(Nc2ncc(-c3ccc(F)cc3)cn2)C1 (centres unmarked) [Example 6, 5-(4-fluorophenyl)-N-(1-isopropylpiperidin-3-yl)pyrimidin-2-amine] | 0.123 µM
CN(C)C1CCCC(Nc2ncc(-c3ccc(F)cc3)cn2)C1 (centres unmarked) [Example 7, N^1-(5-(4-fluorophenyl)pyrimidin-2-yl)-N^3,N^3-dimethylcyclohexane-1,3-diamine] | 0.59 µM
CN1CCCCC1CNc1ncc(-c2ccc(F)cc2)cn1 (centres unmarked) [Example 8, 5-(4-fluorophenyl)-N-((1-methylpiperidin-2-yl)methyl)pyrimidin-2-amine] | 0.286 µM
Cc1nc(NC2CCCN(C(C)C)C2)ncc1-c1ccc(F)cc1 (centres unmarked) [Example 9, 5-(4-fluorophenyl)-N-(1-isopropylpiperidin-3-yl)-4-methyl-pyrimidin-2-amine] | 0.264 µM

Compound | IC50
Cc1nc(NCC2(N(C)C)CCCC2)ncc1-c1ccc(F)cc1F [Example 11, 5-(2,4-difluorophenyl)-N-((1-(dimethylamino)cyclopentyl)methyl)-4-methyl-pyrimidin-2-amine] | 0.246 µM
Cc1nc(NC2CC3CCC(C2)N3C)ncc1-c1ccc(F)cc1F (centres unmarked) [Example 12, N-(5-(2,4-difluorophenyl)-4-methyl-pyrimidin-2-yl)-8-methyl-8-azabicyclo[3.2.1]octan-3-amine] | 0.108 µM
Cc1nc(NCC2CCN(C)C2)ncc1-c1ccc(F)cc1F (centres unmarked) [Example 13, 5-(2,4-difluorophenyl)-4-methyl-N-((1-methylpyrrolidin-3-yl)methyl) pyrimidin-2-amine] | 0.05 µM
Cc1nc(NCCC2CCCN2C)ncc1-c1ccc(F)cc1F (centres unmarked) [Example 14, 5-(2,4-difluorophenyl)-4-methyl-N-(2-(1-methylpyrrolidin-2-yl)ethyl) pyrimidin-2-amine] | 0.042 µM
Cc1nc(NCC2CCCN2C)nnc1-c1ccc(F)cc1F (centres unmarked) [Example 15, 6-(2,4-difluorophenyl)-5-methyl-N-((1-methylpyrrolidin-2-yl)methyl)-1,2,4-triazin-3-amine] | 1.94 µM
COc1ccc(-c2cnc(NCCC3CCCN3C)nc2C)c(F)c1 (centres unmarked) [Example 16, 5-(2-fluoro-4-methoxyphenyl)-4-methyl-N-(2-(1-methylpyrrolidin-2-yl)ethyl)pyrimidin-2-amine] | 0.075 µM
COc1ccc(-c2cnc(NCC3CCCCN3C)nc2C)c(F)c1 (centres unmarked) [Example 17, 5-(2-fluoro-4-methoxyphenyl)-4-methyl-N-((1-methylpiperidin-2-yl)methyl) pyrimidin-2-amine] | 0.02 µM
CN1CCCC1CNc1ncc(-c2ccc(F)cc2F)c(C#N)n1 (centres unmarked) [Example 19, 5-(2,4-difluorophenyl)-2-(((1-methylpyrrolidin-2-yl)methyl)amino) pyrimidine-4-carbonitrile] | 0.216 µM
Cc1nc(NCC2CCCCN2C)nnc1-c1ccc(F)cc1F (centres unmarked) [Example 20, 6-(2,4-difluorophenyl)-5-methyl-N-((1-methylpiperidin-2-yl)methyl)-1,2,4-triazin-3-amine] | 0.49 µM
Cc1nc(NCCC2CCCN2C)nnc1-c1ccc(F)cc1F (centres unmarked) [Example 21, 6-(2,4-difluorophenyl)-5-methyl-N-(2-(1-methylpyrrolidin-2-yl)ethyl)-1,2,4-triazin-3-amine] | 0.599 µM
Cc1nc(NC2CCN(C(C)C)C2)ncc1-c1ccc(F)cc1F (centres unmarked) [Example 22, 5-(2,4-difluorophenyl)-N-(1-isopropylpyrrolidin-3-yl)-4-methyl-pyrimidin-2-amine] | 0.05 µM
COc1ccc(-c2nnc(NCCC3CCCN3C)nc2C)c(F)c1 (centres unmarked) [Example 23, 6-(2-fluoro-4-methoxyphenyl)-5-methyl-N-(2-(1-methylpyrrolidin-2-yl)ethyl)-1,2,4-triazin-3-amine] | 0.233 µM
Cc1nc(NC[C@@H]2CCCN2C)ncc1-c1ccc(F)cc1F [Example 24a, (S)-5-(2,4-difluorophenyl)-4-methyl-N-((1-methylpyrrolidin-2-yl)methyl) pyrimidin-2-amine] | 0.062 µM
COc1ccc(-c2cnc(NCC3CCCCN3C)nc2C#N)c(F)c1 (centres unmarked) [Example 25, 5-(2-fluoro-4-methoxyphenyl)-2-(((1-methylpiperidin-2-yl)methyl)amino) pyrimidine-4-carbonitrile] | 0.034 µM
COc1ccc(-c2nnc(NCC3CCCCN3C)nc2C)c(F)c1 (centres unmarked) [Example 26, 6-(2-fluoro-4-methoxyphenyl)-5-methyl-N-((1-methylpiperidin-2-yl)methyl)-1,2,4-triazin-3-amine] | 0.156 µM
COc1ccc(-c2cnc(NCCC3CCCN3C)nc2C#N)c(F)c1 (centres unmarked) [Example 27, 5-(2-fluoro-4-methoxyphenyl)-2-((2-(1-methylpyrrolidin-2-yl)ethyl)amino) pyrimidine-4-carbonitrile] | 0.056 µM
Cc1nc(NC2CCN(C)C2)ncc1-c1ccc(F)cc1F (centres unmarked) [Example 29, 5-(2,4-difluorophenyl)-4-methyl-N-(1-methylpyrrolidin-3-yl)pyrimidin-2-amine] | 0.095 µM

Same assay, conditions: IC50 (μM), HEK cell line stably expressing the receptor; 10 min pre-incubation, nicotine EC80; 10-point curve, duplicate wells

Compound | IC50
CCN1CCCCC1CNc1ncc(-c2ccc(F)cc2F)c(C)n1 (centres unmarked) [Example 10, 5-(2,4-difluorophenyl)-N-((1-ethylpiperidin-2-yl)methyl)-4-methyl-pyrimidin-2-amine] | 0.201 µM
